According to US20030232741A1, “Methods of treatment of glaucoma and other conditions mediated by NOS-2 expression via inhibition of the EGFR pathway” (Washington University, priority 2002, published 2003):
Entries after “also recorded” stand apart in the source; their conditions may differ.

Tests used:
Type in all cases: cell-based
[1] = test system: NOS-2; experiment: NOS-2 protein induction in human ONH astrocytes (immunoblot); settings: for NOS-2 protein induced by elevated hydrostatic pressure: elevated hydrostatic pressure 48 hrs, AG18 40 μM, anti-EGFR antibody 1:20; for induction of NOS-2 in response to cytokines (protein/mRNA not specified): IL-1β/IFN-γ
Protocol: (§1) Twelve normal human (aged 22-51) eyes were obtained within 24 hrs after death. Lamina cribrosa astrocytes were obtained as described previously.^5 The second-passage cell cultures, which had over 95% cells positive for GFAP, were grown to 60-80% confluency and placed in serum free medium for one week before use.
(§2) Astrocytes grown on coverslips were placed under sterile, disposable polypropylene cylinders 6 cm high and 3 cm in diameter. Hydrostatic pressure was elevated by 5 cm of serum free medium, conditioned at 37° C. in a 5% CO2 humidified atmosphere. As control, the same number of cells on a coverslip was placed in 140 mm Petri dishes with 0.3 cm height of media in a volume equivalent to that used in the hydrostatic pressure experiments. Both pressurized and control cultures were maintained in a tissue culture incubator at 37° C. with a 5% CO2 humidified atmosphere for various periods. AG82 or AG18 (Calbiochem, Darmstadt, Germany) was added to the cell media 30 min before and during the period of exposure to elevated hydrostatic pressure or IL-1β/IFN-γ at final concentrations of 7 μM or 40 μM, respectively. SB202190 (Calbiochem, Darmstadt, Germany) was added to the cell media 30 min before and during the period of exposure to elevated hydrostatic pressure or IL-1β/IFN-γ at a final concentrations of 380 nM. SN-50 (BioMol, Plymouth Meeting, Pa.) was added to the cell media 30 min before and during the period of exposure to elevated hydrostatic pressure or IL-1β/IFN-γ at a final concentrations of 50 μg/ml. Monoclonal anti-EGFR antibody (Santa Cruz Biotechnology Inc, Santa Cruz, Calif.) which recognizes an EGF receptor cell surface epitope and is an antagonist of EGFR, was added to the cell media 12 hrs before and during the period of exposure to elevated hydrostatic pressure or EGF (100 ng/ml)(Sigma-Aldrich Corp., St. Louis, Mo.) at a working dilution of 1:20. Astrocytes were stimulated by the addition to the media of 200 U/ml human IFN-γ (Sigma-Aldrich Corp, Saint Louis, Mo.) and 10 ng/ml human IL-1β (Sigma-Aldrich Corp, Saint Louis, Mo.) for 12 or 48 hours.
NOS-2 immunoblot was as described previously.^5 For EGFR and p-EGFR immunoblot,^11 astrocytes were lysed in buffer (20 mm HEPES, pH 7.0, 10 mM KCI, 2 mM MgCl2, 0.5% Nonidet P40, 1 mM Na3VO4, 1 mM PMSF, 0.15 U ml^−1 aprotinin) and homogenized. The non-nuclear and nuclear fractions were separated by centrifugation at 1,500 g for 5 min to sediment the nuclei. The nuclear pellet was washed with the lysis buffer and resuspended in the same buffer containing 0.5 M NaCl to extract nuclear proteins. 20 μg protein of each non-nuclear fraction and 40 μg of each nuclear fraction were separated by 10% SDS-PAGE and transferred to a nitrocellulose membrane. Immunoblotting was performed with specific primary antibody against EGFR and p-EGFR followed by peroxidase-conjugated secondary antibody (Santa Cruz Biotechnology Inc, Santa Cruz, Calif.) and imaged by the enhanced chemiluminescence detection system (Amersham Life Science Inc, Arlington Heights, Ill.).

[2] = test system: NOS-2 mRNA; experiment: NOS-2 mRNA induction in human ONH astrocytes (semi-quantitative RT-PCR); settings: AG82 7 μM, SB202190 380 nM, SN-50 50 μg/ml; for NOS-2 mRNA induced by elevated hydrostatic pressure: elevated hydrostatic pressure 12 hrs, AG18 40 μM
Protocol: as §1
as §2, with “Astrocytes were stimulated by the addition to the media of 200 U/ml human IFN-γ (Sigma-Aldrich Corp, Saint Louis, Mo.) and 10 ng/ml human IL-1β (Sigma-Aldrich Corp, Saint Louis, Mo.) for 12 or 48 hours.” left out
Semi-quantitative RT-PCR was performed as published previously.^8

[3] = target: T1, p-EGFR (Homo sapiens, UniProt P00533); experiment: Immunocytochemistry for p-EGFR in cultured human ONH astrocytes exposed to elevated hydrostatic pressure; settings: elevated hydrostatic pressure 10 min; AG82 7 μM added 30 min before and during
Protocol: Astrocytes grown on coverslips were placed under sterile, disposable polypropylene cylinders 6 cm high and 3 cm in diameter. Hydrostatic pressure was elevated by 5 cm of serum free medium, conditioned at 37° C. in a 5% CO2 humidified atmosphere. As control, the same number of cells on a coverslip was placed in 140 mm Petri dishes with 0.3 cm height of media in a volume equivalent to that used in the hydrostatic pressure experiments. Both pressurized and control cultures were maintained in a tissue culture incubator at 37° C. with a 5% CO2 humidified atmosphere for various periods. […]
As described previously,^5 cells grown on coverslips were fixed in 4% paraformaldehyde, incubated with specific primary antibodies against EGFR, p-EGFR or GFAP and appropriate fluorescent conjugated secondary antibodies (Molecular Probes Inc., Eugene, Ore), and visualized by fluorescence microscopy. […]

[4] = target: T1, p-EGFR; experiment: Immunoblot for p-EGFR in nuclear and non-nuclear fractions of human ONH astrocytes exposed to elevated hydrostatic pressure; settings: elevated hydrostatic pressure 10 min; AG82 7 μM added 30 min before and during
Protocol: NOS-2 immunoblot was as described previously.^5 For EGFR and p-EGFR immunoblot,^11 astrocytes were lysed in buffer (20 mm HEPES, pH 7.0, 10 mM KCI, 2 mM MgCl2, 0.5% Nonidet P40, 1 mM Na3VO4, 1 mM PMSF, 0.15 U ml^−1 aprotinin) and homogenized. The non-nuclear and nuclear fractions were separated by centrifugation at 1,500 g for 5 min to sediment the nuclei. […]

[5] = AG82 7 μM, SB202190 380 nM, SN-50 50 μg/ml

T1 sequence (P00533 25-1210): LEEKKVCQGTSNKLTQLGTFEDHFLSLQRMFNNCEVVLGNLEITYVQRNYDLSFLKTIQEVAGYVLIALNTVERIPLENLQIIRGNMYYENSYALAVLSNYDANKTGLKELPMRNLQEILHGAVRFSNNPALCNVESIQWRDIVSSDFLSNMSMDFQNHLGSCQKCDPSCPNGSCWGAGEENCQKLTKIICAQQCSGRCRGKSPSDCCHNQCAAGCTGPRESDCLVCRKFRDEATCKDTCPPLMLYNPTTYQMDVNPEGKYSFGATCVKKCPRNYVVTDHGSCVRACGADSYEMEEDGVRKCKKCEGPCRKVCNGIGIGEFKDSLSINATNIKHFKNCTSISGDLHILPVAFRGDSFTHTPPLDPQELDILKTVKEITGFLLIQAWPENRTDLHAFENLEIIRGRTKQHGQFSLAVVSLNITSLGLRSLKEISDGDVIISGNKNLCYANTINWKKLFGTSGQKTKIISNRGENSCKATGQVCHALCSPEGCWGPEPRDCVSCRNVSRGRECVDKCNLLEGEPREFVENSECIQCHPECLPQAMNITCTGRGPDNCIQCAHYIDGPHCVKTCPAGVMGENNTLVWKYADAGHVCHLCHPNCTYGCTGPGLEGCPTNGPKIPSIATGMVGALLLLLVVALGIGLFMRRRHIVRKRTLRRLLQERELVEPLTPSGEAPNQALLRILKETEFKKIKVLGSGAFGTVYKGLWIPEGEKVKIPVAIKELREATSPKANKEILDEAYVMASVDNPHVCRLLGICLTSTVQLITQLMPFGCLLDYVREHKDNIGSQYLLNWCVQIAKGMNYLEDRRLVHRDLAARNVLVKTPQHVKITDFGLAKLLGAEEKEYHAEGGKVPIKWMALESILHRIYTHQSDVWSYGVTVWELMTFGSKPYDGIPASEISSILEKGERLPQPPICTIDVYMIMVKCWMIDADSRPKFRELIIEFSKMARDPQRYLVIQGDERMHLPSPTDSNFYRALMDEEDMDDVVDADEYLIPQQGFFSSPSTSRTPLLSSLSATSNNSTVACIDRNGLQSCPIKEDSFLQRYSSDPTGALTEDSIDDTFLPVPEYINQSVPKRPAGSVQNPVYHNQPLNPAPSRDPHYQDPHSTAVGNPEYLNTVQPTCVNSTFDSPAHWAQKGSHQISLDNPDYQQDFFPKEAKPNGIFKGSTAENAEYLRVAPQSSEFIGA

Row | Compound | NOS-2 protein induced by elevated hydrostatic pressure [1, 5] | NOS-2 mRNA induced by elevated hydrostatic pressure [2] | induction of NOS-2 in response to cytokines (protein/mRNA not specified) ([1]; human optic nerve astrocytes) | further results
1 | N#CC(C#N)=Cc1ccc(O)c(O)c1 [AG18, α-Cyano-(3,4-dihydroxy)cinnamonitrile] | prevented both the increased protein level and the mRNA level of NOS-2; also recorded: significantly blocked the appearances of NOS-2 mRNA and protein | prevented both the increased protein level and the mRNA level of NOS-2; also recorded: significantly blocked the appearances of NOS-2 mRNA and protein |  | 
2 | N#CC(C#N)=Cc1cc(O)c(O)c(O)c1 [AG82, α-Cyano-(3,4,5-trihydroxy)cinnamonitrile] | significantly prevented the increased protein level of NOS-2; also recorded: significantly blocked the appearance of NOS-2 protein in response to elevated hydrostatic pressure; also recorded: significantly blocked the appearances of NOS-2 mRNA and protein | almost completely prevented; also recorded: affects the transcription of the NOS-2 gene to mRNA in response to elevated hydrostatic pressure; also recorded: significantly blocked the appearances of NOS-2 mRNA and protein | does not inhibit the induction of NOS-2 in response to cytokines | induction of NOS-2 in response to elevated hydrostatic pressure (protein/mRNA not specified) ([1]; human optic nerve astrocytes, elevated hydrostatic pressure): blocks induction of NOS-2 in response to elevated hydrostatic pressure; immunocytochemical labeling for p-EGFR in response to elevated hydrostatic pressure [3]: blocked the increased immunocytochemical labeling for p-EGFR in the cytoplasm in response to elevated hydrostatic pressure and, most notably, there was no nuclear labeling for p-EGFR; also recorded: prevents the nuclear labeling for p-EGFR; tyrosine phosphorylation of EGFR (p-EGFR) in non-nuclear and nuclear extracts by immunoblot [4]: significantly blocked the tyrosine phosphorylation of EGFR in both non-nuclear and nuclear extracts; also recorded: completely prevents the increase in p-EGFR in both nuclear and non-nuclear fractions
3 | Oc1ccc(-c2nc(-c3ccncc3)c(-c3ccc(F)cc3)[nH]2)cc1 [SD202190] |  |  | blocks the induction of NOS-2 in human optic nerve astrocytes in response to cytokines | NOS-2 protein induced by cytokines ([1]; 200 U/ml IFN-γ and 10 ng/ml IL-1β, 48 hours, AG82 7 μM, SB202190 380 nM, SN-50 50 μg/ml): significantly blocked the appearance of NOS-2 protein in response to cytokine stimulation; NOS-2 mRNA induced by cytokines ([2]; 200 U/ml IFN-γ and 10 ng/ml IL-1β, 12 hours): affects the transcription of the NOS-2 gene to mRNA in response to cytokines
4 | EGF: epidermal growth factor, EGFR ligand (Sigma-Aldrich), added at 100 ng/ml (NSDSECPLSHDGYCLHDGVCMYIEALDKYACNCVVGYIGERCQYRDLKWWELR; UniProt P01133 971-1023, looked up) |  |  |  | NOS-2 protein level in astrocytes treated with EGF (Western blot and immunocytochemistry) ([1]; 100 ng/ml EGF in culture medium for 48 hrs, versus non-treated astrocytes): significantly increased; also recorded: increased labeling for NOS-2 and GFAP
